Values of other authors as cited in patent US11478463B2, “Mast cell stabilizers for treatment of chronic inflammatory conditions” (Emergo Therapeutics, Inc., priority 2016, dated 2022).

How the values were obtained:
[1] = ketotifen 2 mg per dose, twice daily
[2] = patients
[3] = in vivo

steady state level [1] [ng/mL]	time to approach steady state level [1]	half-life relative to ketotifen [3]	SMILES	drowsiness [2]
~2	at least 2.5 days	–	CN1CCC(=C2c3ccccc3CC(=O)c3sccc32)CC1 [ketotifen]	causes extreme drowsiness in many patients
–	–	longer half-life than ketotifen	O=C1Cc2ccccc2C(=C2CCNCC2)c2ccsc21 [norketotifen]	does not cause drowsiness
